In test [1] the test system is mouse cortical brain slices. In words: Lysolecithin-treated mouse organotypic slice culture, Mbp transcript. The class given is cell-based. The following applies: lysolecithin 18 h, then 3 days treatment; read-out: EC50 of Mbp transcript increase. As for the experimental part:
We next used an ex vivo organotypic brain slice culture to assess remyelination following a demyelinating insult. Mouse cortical brain slices were treated with lysolecithin, which induces acute demyelination through a non-specific lipid-based mechanism. […] After 3 additional days, the brain slices were processed for Mbp.
Evaluation of Mbp transcript in mouse brain slice culture: Brains were collected from P17 mice and placed into ice cold HBSS containing 20% FBS. Brains were bisected sagittally and 250 µm coronal slices made with a manual tissue chopper. Only slices anterior to the hippocampus displaying a discrete corpus callosum were used. Approximately 12 slices are obtained per animal. Slices were laid on a 30 mm MilliCell organotypic culture insert in a 6-well culture dish containing 1.1 mL growth media (DMEM, 25% HBSS-Ca^2+/-Mg^2+, 25% heat inactivated horse serum, glucose (5 g/l), 25 mM ascorbic acid and penicillin/streptomycin). Slices were cultured in vitro for 72 h with a 50% media change at 24 h. After 72 h, slices were demyelinated using media containing 0.5 mg/ml lysolecithin for 18 h. […] Slices were snap frozen and RNA extracted using the RNEasy Mini kit (Qiagen). […] Data was calculated using 2^−ΔΔCt , normalizing to 18S RNA and vehicle.

The test system of test [2] is rat brain meningeal fibroblasts. In words: LPA-induced activation of rat meningeal fibroblasts (COL1+ area). Format: cell-based. The following applies: LPA stimulation, read-out: IC50 of inhibition of increase in COL1+ area. The procedure: Recent work from Dorrier et al., has implicated persistent fibrotic scarring in the CNS in the mouse EAE model and that the contributing cells were of meningeal origin. […] We cultured primary rat or human brain meningeal fibroblasts and applied 10 µM LPA to induce activation. Upon LPA stimulation, we saw a change in morphology that could be quantified as a change in collagen I (COL1^+) area.
Meningeal fibroblasts were isolated from postnatal day 8 CD-1 rats (Charles River Labs, Willington, MA). Meninges were peeled off and digested in Accutase (Thermo Fisher, Waltham, MA, Waltham, MA) for 20 min at room temperature. […] was added to stop protease activity. Digested meninges were dissociated by trituration and cells were strained through a 40 µm nylon mesh and spun down at 800 g for 15 min. The cell pellet was resuspended in DMEM + 10% FBS and plated in a T-75 flask (Corning) for 10 days. Cells were lifted with Accutase and replated into 96-well Perkin Elmer, Boston, MA Viewplates, at 15k per well. The next day, cells were starved in DMEM for 8 h. […] 1 µM LPA or vehicle were added for 5 h. […] Primary antibody was detected using a goat-anti-mouse Alexa488 secondary antibody (Invitrogen, Carlsbad, CA, 1:250) with Hoechst. Wells were imaged on Nikon A1R confocal and Col1^+ area measured normalized to cell number (Hoechst count). […]

The test system of the next test is MOG-EAE mouse model. Nature of the test: MOG-EAE mouse model, body weight and clinical score. Format: in vivo. The procedure: This model recapitulates several of the features thought to occur in MS and is a widely used model of inflammatory demyelination.
On Day 0, EAE was induced using a MOG35–55/CFA Emulsion PTX Hooke Kit™ (Hooke Laboratories, Lawrence, MA). Briefly, per manufacturer’s instructions, each mouse was administered a total of 0.2 ml emulsion delivered via dorsal subcutaneous injections of 0.1 ml each to the mid-scapula and lower lumbar regions. Pertussis toxin was prepared per lot-specific instructions and administered via intraperitoneal injection of 0.1 ml (200 ng) on Day 0, 2 h post-MOG administration, and again on Day 1, 24 h post-MOG.
Each treatment group contained 12 mice, except for the age-matched control group which contained 8 mice.
Body weights and clinical scores were recorded daily.

Another test deals with T1, human LPA1 (Homo sapiens, UniProt Q92633).
T1 construct: expressed in transfected cells
In words: Functional calcium mobilization assay. The following applies: 24 h pre-incubation prior to LPA addition; read-out: Functional LPA1 Ca^+2 mobilization. The class given is cell-based. As for the experimental part:
Intracellular calcium was monitored with Fluo-4 (Molecular Devices). Dye was made up in HBSS with 0.1% (w/v) BSA and 2.5 mM probenecid. Plates were read using a FlexStation 3 (Molecular Devices, Sunnyvale, CA). Calcium response was generated by the simultaneous addition of the EC80 of LPA.
On the day of assay, media was removed and replaced with dye and 3× fresh compound in HBSS−/− with 0.1% BSA and incubated for 1 h.
30-min assay: Antagonists were added to plates after dye loading was complete at a 3× concentration in HBSS−/− with 0.1% BSA and incubated for 30 min.
In general terms: Calcium assays in cells follow changes in intracellular calcium, usually with a dye or a luminescent sensor.

Usually EC50 stands for the concentration that produces a half-maximal response.

T1 sequence (Q92633 whole entry): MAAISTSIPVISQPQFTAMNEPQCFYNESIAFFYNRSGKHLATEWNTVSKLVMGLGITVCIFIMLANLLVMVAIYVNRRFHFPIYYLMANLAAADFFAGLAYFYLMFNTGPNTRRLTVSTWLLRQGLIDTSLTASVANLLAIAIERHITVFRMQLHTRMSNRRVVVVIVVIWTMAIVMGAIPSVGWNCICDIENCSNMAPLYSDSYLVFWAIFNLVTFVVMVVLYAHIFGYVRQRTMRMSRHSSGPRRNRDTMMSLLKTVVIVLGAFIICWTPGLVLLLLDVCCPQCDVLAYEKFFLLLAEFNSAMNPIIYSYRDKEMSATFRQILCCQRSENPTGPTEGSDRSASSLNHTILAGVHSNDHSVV

For `COc1ccc(NC(=O)N(c2ccccc2C(C)C)C2CCC(C(=O)O)CC2)c(OC(F)F)n1` (stereo not shown) [PIPE-791], the EC50 in test [1] is 12.1 nM. The IC50 in test [2] was determined as 31.8 nM. In addition, in the test on MOG-EAE mouse model (0.3 mg/kg oral once daily), the “clinical score by day 24” value is given as 1.5, the disease onset was found to be 14 days and the peak clinical score is listed as 2.1. Besides, in the test with MOG-EAE mouse model (3 mg/kg oral once daily), the “clinical score at study end” value came out at 1.5, the disease onset came out at 14 days and the peak clinical score worked out at 1.4. Moreover, the “cumulative body weight (day 0 to 24)” value with MOG-EAE mouse model (0.3 and 3 mg/kg oral once daily) was “Significant increases”. Also, the IC50 at human LPA1 worked out at 9.9 nM.
